{"source": "ChEMBL document CHEMBL5715952", "about": "(Oncotarget, 2015)", "key": {"ANBL-6 [1]": {"test_system": "ANBL-6", "assay": "Synergistic antiproliferative activity against wild-type human ANBL-6 cells assessed as reduction in cell viability at ED50 incubated for 72 hrs in presence of bortezomib by MTS assay", "type": "functional"}, "[2]": {"molecular_target": "Bromodomain and extra-terminal motif (BET) (Homo sapiens) (UniProt P25440+O60885+Q58F21+Q15059)", "conditions": "Bortezomib-resistant ANBL6 cell, dose lower 40.0 nM, dose upper […]"}, "[3]": {"test_system": "Bortezomib-resistant ANBL6", "assay": "Induction of apoptosis in human bortezomib-resistant ANBL6 cells assessed as viable at 1600 nM incubated for 72 hrs by annexin V and 7-AAD staining by flow cytometry analysis (Rvb=80 %)", "type": "functional"}, "ANBL-6 [4]": {"test_system": "ANBL-6", "assay": "Induction of apoptosis in wild-type human ANBL-6 cells assessed as early apoptosis at 1600 nM incubated for 72 hrs by annexin V and 7-AAD staining by flow cytometry analysis (Rvb=14 %)", "type": "functional"}, "RPMI-8226": {"test_system": "RPMI-8226", "assay": "Synergistic antiproliferative activity against wild-type human RPMI-8226 cells assessed as reduction in cell viability at ED90 incubated for 72 hrs in presence of bortezomib by MTS assay", "type": "functional"}, "[5]": {"test_system": "Bortezomib-resistant ANBL6", "assay": "Synergistic apoptosis activity in human bortezomib-resistant ANBL6 cells assessed as late apoptosis at 1600 nM incubated for 72 hrs in the presence of BTZ by annexin V and 7-AAD staining by flow cytometry analysis (Rvb=5 %)", "type": "functional"}, "[6]": {"test_system": "Bortezomib-resistant ANBL6", "assay": "Synergistic antiproliferative activity against human bortezomib-resistant ANBL6 cells assessed as reduction in cell viability at ED75 incubated for 72 hrs in presence of bortezomib by MTS assay", "type": "functional"}, "ANBL-6 [7]": {"test_system": "ANBL-6", "assay": "Induction of apoptosis in wild-type human ANBL-6 cells assessed as late apoptosis at 40 nM incubated for 72 hrs by annexin V and 7-AAD staining by flow cytometry analysis (Rvb=26 %)", "type": "functional"}, "[8]": {"assay": "Synergistic antiproliferative activity against human melphalan-resistant RPMI-8226 cells assessed as reduction in cell viability at ED90 incubated for 72 hrs in presence of bortezomib by MTS assay", "type": "functional, Melphalan-resistant RPMI-8226 cell"}, "ANBL-6 [9]": {"test_system": "ANBL-6", "assay": "Induction of apoptosis in wild-type human ANBL-6 cells assessed as viable at 1600 nM incubated for 72 hrs by annexin V and 7-AAD staining by flow cytometry analysis (Rvb=59 %)", "type": "functional"}, "[10]": {"test_system": "Bortezomib-resistant ANBL6", "assay": "Synergistic antiproliferative activity against human bortezomib-resistant ANBL6 cells assessed as reduction in cell viability at ED90 incubated for 72 hrs in presence of bortezomib by MTS assay", "type": "functional"}, "ANBL-6 [11]": {"test_system": "ANBL-6", "assay": "Synergistic apoptosis activity in wild-type human ANBL-6 cells assessed as early apoptosis at 1600 nM incubated for 48 hrs in the presence of BTZ by annexin V and 7-AAD staining by flow cytometry analysis", "type": "functional"}}, "note": "The source made the active and inactive calls. The rule behind the calls is not given here."}
{"molecule": "Cc1sc2c(c1C)C(c1ccc(Cl)cc1)=N[C@@H](CC(N)=O)c1nnc(C)n1-2", "values": [{"measurement": "CI", "setting": "ANBL-6 [1]", "result": 0.793}, {"measurement": "inhibition", "setting": "[2]", "result": "Active"}, {"measurement": "Activity", "setting": "[3]", "result": 54, "unit": "%"}, {"measurement": "Activity", "setting": "ANBL-6 [4]", "result": 31, "unit": "%"}, {"measurement": "CI", "setting": "RPMI-8226", "result": 1.041}, {"measurement": "Activity", "setting": "[5]", "result": 10, "unit": "%"}, {"measurement": "CI", "setting": "[6]", "result": 0.494}, {"measurement": "Activity", "setting": "ANBL-6 [7]", "result": 28, "unit": "%"}, {"measurement": "CI", "setting": "[8]", "result": 0.569}, {"measurement": "Activity", "setting": "ANBL-6 [9]", "result": 31, "unit": "%"}, {"measurement": "CI", "setting": "[10]", "result": 0.355}, {"measurement": "CI", "setting": "ANBL-6 [11]", "result": 0.24}]}
